According to patent publication US11617751B2, “Pharmaceutical composition containing a tetrahydrofolic acid” (Bayer Pharma AG, priority 2006, dated 2023):

Settings: in presence of polyvinylpyrrolidone (PVP); data not shown

With `CN1c2c(nc(N)[nH]c2=O)NC[C@@H]1CNc1ccc(C(=O)N[C@@H](CCC(=O)O)C(=O)O)cc1` [5-methyl-(6S)-tetrahydrofolic acid] the “effect of PVP on break-down of 5-methyl-(6S)-tetrahydrofolic acid” value was “accelerated the break-down”.
